Measured values reported in patent US20230167127A1, “COMPOUNDS AND THEIR USE IN THE TREATMENT OF BACTERIAL INFECTION” (Hoffmann-La Roche Inc., priority 2020, published 2023).
pIC50: −log10 of the molar value.

Each molecule was assayed on Escherichia coli ATCC 25922 (assay: 50% growth inhibitory concentration (IC50) determination, Iso-Sensitest broth dilution). Details: Escherichia coli, ATCC25922, 16 h, strain Escherichia coli ATCC 25922; 10-point broth dilution, optical density at 600 nm over 16 h; read-out: Escherichia coli growth inhibition IC50.
Format: cell-based
How it was run: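 10-point twofold Iso-Sensitest broth dilution (e.g. 50 to 0.097 μM final) with DMSO stocks, incubated at 35±2° C. Growth followed by OD 600 nm every 20 min over 16 h; IC50 derived from growth inhibition during logarithmic phase.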
Cc1nc(OCC2COCCN2)c(C)c2c1CC(CNCCC1CN(c3ccc4c(n3)NC(=O)CO4)C(=O)O1)C2 (stereo not shown) [Example 199, 6-[5-[2-[[1,4-dimethyl-3-(morpholin-3-ylmethoxy)-6,7-dihydro-5H-cyclopenta[c]pyridin-6-yl]methylamino]ethyl]-2-oxo-1,3-oxazolidin-3-yl]-4H-pyrido[3,2-b][1,4]oxazin-3-one] gave a pIC50 of 7.05.
With N#Cc1cccc2c1CC(CNCCC1CN(c3ccc4c(c3)NC(=O)CO4)C(=O)O1)C2 (stereo not shown) [Example 18, 2-[[2-[2-oxo-3-(3-oxo-4H-1,4-benzoxazin-6-yl)-1,3-oxazolidin-5-yl]ethylamino]methyl]-2,3-dihydro-1H-indene-4-carbonitrile; formic acid] the pIC50 was > 7.01.
For N[C@H]1c2cccc(Cl)c2C[C@@H]1CNCC[C@@H]1CN(c2cnc3c(n2)NC(=O)CO3)C(=O)O1 [Example 403, 6-[(5R)-5-[2-[[(1R,2R)-1-amino-4-chloro-2,3-dihydro-1H-inden-2-yl]methylamino]ethyl]-2-oxo-1,3-oxazolidin-3-yl]-4H-pyrazino[2,3-b][1,4]oxazin-3-one], the pIC50 was > 7.01.
With CNC(=O)COc1nc(C)c2c(c1C)CC(CNCCC1CN(c3ccc4c(n3)NC(=O)CO4)C(=O)O1)C2 (stereo not shown) [Example 110, 2-[[1,4-dimethyl-6-[[2-[2-oxo-3-(3-oxo-4H-pyrido[3,2-b][1,4]oxazin-6-yl)-1,3-oxazolidin-5-yl]ethylamino]methyl]-6,7-dihydro-5H-cyclopenta[c]pyridin-3-yl]oxy]-N-methylacetamide] the pIC50 was 6.51.
In the case of N#Cc1c(OCCN)ccc2c1CC(CNCCC1CN(c3ccc4c(n3)NC(=O)CO4)C(=O)O1)C2 (stereo not shown) [Example 128, 5-(2-aminoethoxy)-2-[[2-[2-oxo-3-(3-oxo-4H-pyrido[3,2-b][1,4]oxazin-6-yl)-1,3-oxazolidin-5-yl]ethylamino]methyl]-2,3-dihydro-1H-indene-4-carbonitrile; formic acid], the pIC50 was 7.01.
For N#Cc1cccc2c1CC(N1CCC(C3CN(c4cnc5c(n4)NC(=O)CO5)C(=O)O3)CC1)C2 (stereo not shown) [Example 349, 2-[4-[2-oxo-3-(3-oxo-4H-pyrazino[2,3-b][1,4]oxazin-6-yl)-1,3-oxazolidin-5-yl]piperidin-1-yl]-2,3-dihydro-1H-indene-4-carbonitrile], the pIC50 was > 7.01.
In the case of Cc1nc(OCC2(N)CC2)cc2c1CC(CNCCC1CN(c3ccc4c(n3)NC(=O)CO4)C(=O)O1)C2 (stereo not shown) [Example 175, 6-[5-[2-[[3-[(1-aminocyclopropyl)methoxy]-1-methyl-6,7-dihydro-5H-cyclopenta[c]pyridin-6-yl]methylamino]ethyl]-2-oxo-1,3-oxazolidin-3-yl]-4H-pyrido[3,2-b][1,4]oxazin-3-one], the pIC50 was 6.71.
With NC1c2cccc(Cl)c2CC1CNCCc1nn(-c2ccc3c(n2)NC(=O)CO3)c(=O)o1 (racemic) [Example 153, 6-[5-[2-[(rac-1,2-trans-1-amino-4-chloro-2,3-dihydro-1H-inden-2-yl)methylamino]ethyl]-2-oxo-1,3,4-oxadiazol-3-yl]-4H-pyrido[3,2-b][1,4]oxazin-3-one] the pIC50 was 6.70.
For NC(CN1CC2(C1)CN(c1ccc3c(n1)NC(=O)CO3)C(=O)O2)C1Cc2cccc(Cl)c2C1 (stereo not shown) [Example 159, 6-[2-[2-amino-2-(4-chloro-2,3-dihydro-1H-inden-2-yl)ethyl]-6-oxo-5-oxa-2,7-diazaspiro[3.4]octan-7-yl]-4H-pyrido[3,2-b][1,4]oxazin-3-one; formic acid], the pIC50 was 6.77.
Work on Cc1ncc(F)c2c1CC(CCN1CC3(C1)CN(c1cnc4c(n1)NC(=O)CO4)C(=O)O3)C2 (stereo not shown) [Example 326, 6-[2-[2-(4-fluoro-1-methyl-6,7-dihydro-5H-cyclopenta[c]pyridin-6-yl)ethyl]-6-oxo-5-oxa-2,7-diazaspiro[3.4]octan-7-yl]-4H-pyrazino[2,3-b][1,4]oxazin-3-one] yielded a pIC50 of 6.86.
In the case of COCC(N)COc1cc(F)c2c(c1)CC(CNCCC1CN(c3ccc4c(n3)NC(=O)CO4)C(=O)O1)C2 (stereo not shown) [Example 248, 6-[5-[2-[[6-(2-amino-3-methoxypropoxy)-4-fluoro-2,3-dihydro-1H-inden-2-yl]methylamino]ethyl]-2-oxo-1,3-oxazolidin-3-yl]-4H-pyrido[3,2-b][1,4]oxazin-3-one], the pIC50 was > 7.01.
In the case of CC(C)(N)COc1cc(F)c2c(c1)CC(CN1CCC3(CC1)CN(c1cnc4c(n1)NC(=O)CO4)C(=O)O3)C2 (single isomer, unassigned; enantiomer a) [Example 377, 6-[8-[[6-(2-Amino-2-methylpropoxy)-4-fluoro-2,3-dihydro-1H-inden-2-yl]methyl]-2-oxo-1-oxa-3,8-diazaspiro[4.5]decan-3-yl]-4H-pyrazino[2,3-b][1,4]oxazin-3-one; formic acid, Enantiomer A], the pIC50 was > 7.01.
N#Cc1cc(OCCN)cc2c1CC(CNCCC1CN(c3ccc4c(n3)NC(=O)CO4)C(=O)O1)C2 (stereo not shown) [Example 188, 6-(2-aminoethoxy)-2-[[2-[2-oxo-3-(3-oxo-4H-pyrido[3,2-b][1,4]oxazin-6-yl)-1,3-oxazolidin-5-yl]ethylamino]methyl]-2,3-dihydro-1H-indene-4-carbonitrile] was tested, and the pIC50 was > 7.01.
For N#Cc1cccc2c1CC(CNCCC1CN(c3ncc4c(n3)NC(=O)CO4)C(=O)O1)C2 (stereo not shown) [Example 289, 2-[[2-[2-oxo-3-(7-oxo-8H-pyrimido [5,4-b] [1,4]oxazin-2-yl)-1,3-oxazolidin-5-yl]ethylamino]methyl]-2,3-dihydro-1H-indene-4-carbonitrile], the pIC50 was > 7.01.
For Cc1ncc(F)c2c1CC(CNCCC1CN(c3ccc4c(n3)NC(=O)CO4)C(=O)O1)C2 (stereo not shown) [Example 36, 6-[5-[2-[(4-fluoro-1-methyl-6,7-dihydro-5H-cyclopenta[c]pyridin-6-yl)methylamino]ethyl]-2-oxo-1,3-oxazolidin-3-yl]-4H-pyrido[3,2-b][1,4]oxazin-3-one], the pIC50 was > 7.01.
Work on CC(C)(CC1CN(c2ccc3c(n2)NC(=O)CO3)C(=O)O1)NCC1Cc2cccc(C#N)c2C1 (stereo not shown) [Example 29, 2-[[[2-methyl-1-[2-oxo-3-(3-oxo-4H-pyrido[3,2-b][1,4]oxazin-6-yl)-1,3-oxazolidin-5-yl]propan-2-yl]amino]methyl]-2,3-dihydro-1H-indene-4-carbonitrile] yielded a pIC50 of 6.02.
With CNC(=O)COc1cc(F)c2c(c1F)CC(CNCCC1CN(c3ccc4c(n3)NC(=O)CO4)C(=O)O1)C2 (stereo not shown) [Example 394, 2-[[4,7-difluoro-2-[[2-[2-oxo-3-(3-oxo-4H-pyrido[3,2-b][1,4]oxazin-6-yl)-1,3-oxazolidin-5-yl]ethylamino]methyl]-2,3-dihydro-1H-inden-5-yl]oxy]-N-methylacetamide] the pIC50 was > 7.01.

Same assay, conditions: strain Escherichia coli ATCC 25922; 10-point broth dilution, optical density at 600 nm over 16 h; read-out: Escherichia coli growth inhibition IC50
Cc1ncc(F)c2c1CC(NCC(O)CC1CN(c3cnc4c(n3)NC(=O)CO4)C(=O)O1)C2 (single isomer, unassigned; isomer b) [Example 314, 6-[2-Oxo-5-[3-[(4-fluoro-1-methyl-6,7-dihydro-5H-cyclopenta[c]pyridin-6-yl)amino]-2-hydroxypropyl]-1,3-oxazolidin-3-yl]-4H-pyrazino[2,3-b][1,4]oxazin-3-one; formic acid, Isomer B] gave a pIC50 of 5.93.
For Cc1ncc(F)c2c1CC(NCCCc1cn(-c3cnc4c(n3)NC(=O)CO4)c(=O)o1)C2 (single isomer, unassigned; enantiomer b) [Example 368, 6-[5-[3-[(4-Fluoro-1-methyl-6,7-dihydro-5H-cyclopenta[c]pyridin-6-yl)amino]propyl]-2-oxo-1,3-oxazol-3-yl]-4H-pyrazino[2,3-b][1,4]oxazin-3-one, Enantiomer B], the pIC50 was > 7.01.
